12 compounds from patent US4510136A (priority 1983, dated 1985) can be followed below.

Common to all, as to assay type: in vivo
One assay relates to Venturia inaequalis. Kind of assay: Apple scab control on sprayed apple seedlings (Example 82). The following applies: 100 ppm spray, day before inoculation; for pest or weed control at 100 ppm: Venturia inaequalis. Here is the method:
These suspensions were sprayed to the point of run-off on apple seedlings. The following day, the plants were inoculated with a spore suspension of the fungus Venturia inaequalis, causal agent of apple scab, and incubated in a saturated humidity chamber at 20° for 24 hours and then in a growth room for an additional 10-12 days. Treated plants from successful treatments had fewer apple scab lesions when compared to untreated plants which were covered with scab lesions. Phytotoxicity expressed as growth reduction was observed on some of the plants in association with disease control.

The next assay has as its system Cercospora arachidicola. The experiment in a line: Peanut early leafspot control on sprayed peanut seedlings (Example 84). The following applies: 100 ppm spray, day before inoculation; for pest or weed control at 100 ppm: Mycosphaerella arachidis, 360 h, read-out: % Control Peanut Easly Leafspot. How it is done: These suspensions were sprayed to the point of run-off on peanut seedlings. The following day, the plants were inoculated with a spore suspension of Cercospora arachidicola, causal agent of peanut early leafspot, and incubated in a saturated humidity chamber at 27° for 24 hours and then in a growth room for an additional 14 days, when disease ratings were made. Treated plants from successful treatments had few or no leafspots while the untreated plants had numerous leafspots.

The subject of assay [1] is Puccinia recondita var. tritici. Kind of assay: Wheat leaf rust control on sprayed wheat seedlings (Example 79). The following applies: 100 ppm spray, day before inoculation; for pest or weed control at 100 ppm: Puccinia recondita, 168 h. How it is done: The compounds of this invention were dissolved in acetone in an amount equal to 6% of the final volume and then suspended at a concentration of 100 ppm in purified water containing 250 ppm of the surfactant TREM 014 (polyhydric alcohol esters). These suspensions were sprayed to the point of run-off on wheat seedlings. The following day, the plants were inoculated with a spore suspension of Puccinia recondita var. tritici, causal agent of wheat leaf rust, and incubated in a saturated humidity chamber at 20° for 24 hours and then in a growth room for an additional 7 days, when disease ratings were made. Treated plants from successful treatments had few or no rust pustules while the untreated plants had numerous rust pustules on each leaf.

Another assay relates to Helminthosporium maydis. The experiment in a line: Southern corn leaf blight control on sprayed corn seedlings (Example 83). To be noted: 100 ppm spray, day before inoculation; for pest or weed control at 100 ppm: Bipolaris maydis, 192 h. How it is done:
The compounds of the previous examples were again dissolved in acetone in an amount equal to 6% of the final volume and then suspended at a concentration of 100 ppm in purified water containing 250 ppm of the surfactant TREM 014 (polyhydric alcohol esters). These suspensions were sprayed to the point of run-off on corn seedlings. The following day, the plants were inoculated with a spore suspension of Helminthosporium maydis, causal agent of southern corn leaf blight, and incubated in a saturated humidity chamber at 20° for 24 hours and then in a growth room for an additional 7 days, when disease ratings were made. Treated plants from successful treatments had few or no lesions while the untreated plants had numerous lesions on each leaf. Phytotoxicity expressed as growth reduction was observed on some of the plants in association with disease control.

Another assay deals with Rhizoctonia solani. The experiment in a line: Rice sheath blight control on sprayed rice seedlings (Example 87). The following applies: 100 ppm spray, day before inoculation; for pest or weed control at 100 ppm: Rhizoctonia solani, 168 h. Here is the method: The compounds of the previous examples were again dissolved in acetone in an amount equal to 6% of the final volume and then suspended at a concentration of 100 ppm in purified water containing 250 ppm of the surfactant TREM 014 (polyhydric alcohol esters). This suspension was sprayed to the point of run-off on rice seedlings. The following day, the plants were inoculated with a mixture of bran and the mycelium of Rhizoctonia solani, causal agent of sheath blight of rice, and incubated in a growth room for 7 days. Disease ratings were then made. Treated plants from successful treatments had little sheath blight in contrast to untreated plants which were covered with sheath blight.

The test system of a further assay is Phytophthora infestans. Kind of assay: whole plant or invertebrate. The following applies: for % Control of Tomato Late Blight: 100 ppm spray, day before inoculation; for pest or weed control at 100 ppm: Phytophthora infestans, in Solanum lycopersicum, 168 h, read-out: % Control of Tomato Late Blight, 100 ppm spray, day before inoculation.
The next assay relates to Erysiphe cichoracearum. Kind of assay: Cucumber powdery mildew control on sprayed cucumber seedlings (Example 80). To be noted: 100 ppm spray, day before inoculation; for pest or weed control at 100 ppm: Golovinomyces cichoracearum, 168 h. Here is the method:
These suspensions were sprayed to the point of run-off, on cucumber seedlings. The following day, the plants were inoculated with a spore suspension of the fungus Erysiphe cichoracearum, causal agent of cucumber powdery mildew, and incubated in a growth room for 7 days. Disease ratings were then made. Treated plants from successful treatments had little or no powdery mildew in contrast to untreated plants which were covered with powdery mildew. Phytotoxicity in the form of growth reduction or hormonal effects was observed on some of the plants in association with disease control.

Another assay has as its system Pyricularia oryzae. The experiment in a line: whole plant or invertebrate. The following applies: for % Control of Rice Blast: 100 ppm spray, day before inoculation; for pest or weed control at 100 ppm: Pyricularia oryzae, 168 h, read-out: % Control of Rice Blast, 100 ppm spray, day before inoculation.

Each structure is given as a SMILES string.

Take `C[Si](C)(Cn1cncn1)c1ccc(-c2ccccc2)cc1.[Cl][Cu]` [1:1 complex of (1,1'-Biphenyl-4-yl)dimethyl(1H-1,2,4-triazol-1-ylmethyl)silane and Cuprous Chloride]: the “% Control Apple Scab” value in the assay on Venturia inaequalis amounted to 100%. Moreover, the “% Control Peanut Easly Leafspot” value in the assay on Cercospora arachidicola was determined as 100%. The “% Control Wheat Rust” value in assay [1] is recorded as 0%. Besides, the “% Control of Southern Corn Leaf Blight” value in the assay with Helminthosporium maydis turned out to be 100%. Also, in the assay on Rhizoctonia solani, the “% Control of Rice Sheath Blight” value is reported as 90%. In the assay with Phytophthora infestans, the “% Control of Tomato Late Blight” value is 100%. For the same compound, the “% Control Cucumber Powdery Mildew” value in the assay with Erysiphe cichoracearum was found to be 100%. The “% Control of Rice Blast” value with Pyricularia oryzae is 100%.

As to `C[Si](Cn1cncn1)(c1ccccc1)c1ccccc1Cl` (stereo not drawn) [2-Chlorophenyl(methyl)phenyl(1H-1,2,4-triazol-1-ylmethyl)silane], the pest or weed control at 100 ppm in the assay with Venturia inaequalis is 90%; in the assay with Cercospora arachidicola, 100%; in assay [1], 80%; in the assay on Helminthosporium maydis it was 100%; in the assay with Rhizoctonia solani it was 90%; in the assay on Phytophthora infestans it was 0%. Further, the pest or weed control at 100 ppm in the assay with Erysiphe cichoracearum and in the assay on Pyricularia oryzae was 100% in each case.

For `C[Si](Cn1cncn1)(c1ccccc1)c1ccc(Br)cc1` (stereo not drawn) [4-Bromophenyl(methyl)phenyl(1H-1,2,4-triazol-1-ylmethyl)silane], the pest or weed control at 100 ppm in the assay with Venturia inaequalis came out at 100%; in the assay with Cercospora arachidicola it was 100%; in assay [1], 0%; with Helminthosporium maydis, 80%; in the assay on Rhizoctonia solani, 90%; with Phytophthora infestans, 0%. Besides, the pest or weed control at 100 ppm in the assay with Erysiphe cichoracearum turned out to be 100%; in the assay on Pyricularia oryzae it was 80%.

In the case of `C[Si](C)(Cn1cncn1)c1ccccc1-c1ccccc1` [(1,1'-Biphenyl-2-yl)dimethyl(1H-1,2,4-triazol-1-ylmethyl)silane], the pest or weed control at 100 ppm in the assay on Venturia inaequalis is 60%; in the assay with Cercospora arachidicola, 100%; in assay [1] it was 0%; in the assay with Helminthosporium maydis, 90%; in the assay on Rhizoctonia solani, 0%; in the assay on Phytophthora infestans it was 50%. Moreover, the pest or weed control at 100 ppm in the assay on Erysiphe cichoracearum and in the assay on Pyricularia oryzae was 90% in each case.

On to `C[Si](C)(Cn1cncn1)c1cccc(-c2ccccc2)c1` [(1,1'-Biphenyl-3-yl)dimethyl(1H-1,2,4-triazol-1-ylmethyl)silane], for which the pest or weed control at 100 ppm in the assay with Venturia inaequalis stood at 50%; with Cercospora arachidicola, 90%; in assay [1], 80%; in the assay on Helminthosporium maydis, 100%; in the assay with Rhizoctonia solani, 0%; in the assay on Phytophthora infestans, 0%. Besides, the pest or weed control at 100 ppm in the assay on Erysiphe cichoracearum and with Pyricularia oryzae was 0% in each case.

Turning to `C[Si](C)(Cn1cncn1)c1ccc(-c2ccccc2)cc1.[Cl][Cu][Cl]` [(1,1'-Biphenyl-4-yl)dimethyl(1H-1,2,4-triazol-1-ylmethyl)silane, 1:1 complex with cupric chloride], in the assay on Venturia inaequalis, the “% Control Apple Scab” value was 100%. In the assay on Cercospora arachidicola, the “% Control Peanut Easly Leafspot” value amounted to 100%. Further, in assay [1], the “% Control Wheat Rust” value turned out to be 100%. Also, in the assay with Helminthosporium maydis, the “% Control of Southern Corn Leaf Blight” value is recorded as 80%. Also, the “% Control of Rice Sheath Blight” value in the assay on Rhizoctonia solani stood at 0%. In addition, the “% Control of Tomato Late Blight” value in the assay with Phytophthora infestans was determined as 90%. Besides, the “% Control Cucumber Powdery Mildew” value in the assay on Erysiphe cichoracearum was determined as 100%. Also, the “% Control of Rice Blast” value with Pyricularia oryzae came out at 100%.

With `C[Si](C)(Cn1cncn1)c1ccc(-c2ccccc2)cc1.O=S(=O)([O-])[O-].[Mn+2]` [(1,1'-Biphenyl-4-yl)dimethyl(1H-1,2,4-triazol-1-ylmethyl)silane, 1:1 complex with manganous sulfate], the “% Control Apple Scab” value in the assay on Venturia inaequalis is 100%. Further, the “% Control Peanut Easly Leafspot” value in the assay with Cercospora arachidicola is 100%. Besides, the “% Control Wheat Rust” value in assay [1] stood at 90%. For the same compound, the “% Control of Southern Corn Leaf Blight” value in the assay with Helminthosporium maydis is recorded as 100%. Also, the “% Control of Rice Sheath Blight” value in the assay with Rhizoctonia solani is 0%. Besides, the “% Control of Tomato Late Blight” value with Phytophthora infestans came to 0%. Also, the “% Control Cucumber Powdery Mildew” value in the assay on Erysiphe cichoracearum came out at 90%. Further, the “% Control of Rice Blast” value with Pyricularia oryzae is reported as 0%.

On to `Cc1ncnn1C[Si](C)(C)c1ccc(-c2ccccc2)cc1` [(1,1'-Biphenyl-4-yl)dimethyl(5-methyl-1H-1,2,4-triazol-1-ylmethyl)silane], for which the pest or weed control at 100 ppm in the assay with Venturia inaequalis is 100%; in the assay with Cercospora arachidicola, 100%; in assay [1], 100%; in the assay with Helminthosporium maydis, 80%; with Rhizoctonia solani, 0%; in the assay with Phytophthora infestans, 80%. Further, the values for the pest or weed control at 100 ppm with Erysiphe cichoracearum and in the assay with Pyricularia oryzae were 100% and 0%, respectively.

With `C[Si](O)(Cn1cncn1)c1ccc(-c2ccccc2)cc1` (stereo not drawn) [(1,1'-Biphenyl-4-yl)hydroxy(methyl)(1H-1,2,4-triazol-1-ylmethyl)silane], the pest or weed control at 100 ppm is 100% in the assay with Venturia inaequalis; 100% in the assay with Cercospora arachidicola; 90% in assay [1]; 0% with Helminthosporium maydis; 0% in the assay on Rhizoctonia solani; 0% in the assay with Phytophthora infestans. The results for the pest or weed control at 100 ppm with Erysiphe cichoracearum and with Pyricularia oryzae were 100% and 0%, respectively.

For `CC(C)O[Si](C)(Cn1cncn1)c1ccc(-c2ccccc2)cc1` (stereo not drawn) [(1,1'-biphenyl-4-yl)methyl(2-propoxy)(1H-1,2,4-triazol-1-ylmethyl)silane], the pest or weed control at 100 ppm in the assay on Venturia inaequalis came out at 100%; in the assay on Cercospora arachidicola, 100%; in assay [1], 100%; in the assay on Helminthosporium maydis it was 90%; in the assay on Rhizoctonia solani, 0%; in the assay with Phytophthora infestans it was 0%. The pest or weed control at 100 ppm was found to be 100% with Erysiphe cichoracearum and 0% in the assay on Pyricularia oryzae.

Take `CC(C)(C)O[Si](C)(Cn1cncn1)c1ccccc1` (stereo not drawn) [(1,1-dimethylethoxy)methyl(phenyl)(1H-1,2,4-triazol-1-ylmethyl)silane]: the pest or weed control at 100 ppm (in the assay with Venturia inaequalis; with Cercospora arachidicola; in assay [1]; in the assay on Helminthosporium maydis; in the assay on Rhizoctonia solani; in the assay with Phytophthora infestans) was 0% throughout. Moreover, the pest or weed control at 100 ppm amounted to 100% with Erysiphe cichoracearum and 0% in the assay with Pyricularia oryzae.

For the compound `C[Si](C)(Cn1cncn1)c1cc(Cl)cc(Cl)c1` [(3,5-Dichlorophenyl)dimethyl(1H-1,2,4-triazol-1-ylmethyl)silane], the pest or weed control at 100 ppm with Venturia inaequalis came to 0%; in the assay with Cercospora arachidicola, 0%; in assay [1] it was 80%; in the assay with Helminthosporium maydis, 40%; with Rhizoctonia solani, 0%; in the assay with Phytophthora infestans, 0%. Further, the pest or weed control at 100 ppm in the assay on Erysiphe cichoracearum and in the assay with Pyricularia oryzae was 0% each time.
